The numbers were not newly measured in patent US20230002631A1, “WATER-WASHABLE COMPOSITIONS FOR USE IN 3D PRINTING” (BASF SE, priority 2019, published 2023), which cites them from elsewhere.

Read-outs that look alike come from different tables or passages of the source. A value given as a limit tells only on which side of the number the result lay.

For this series the following is noted: for Water solubility (g/L at 20° C.): slightly water-soluble reactive diluents (B1b); for Amount that dissolves in water: room temperature.

With Polyethylene glycol (400) diacrylate, the Water solubility result (stated in words) is “Water soluble”.

For `C=C(C)C(=O)OCCCO` [hydroxypropyl methacrylate], the “Water solubility (g/L at 20° C.)” value (20° C.) is on record as below 10 g/L.

With `C=C(C)C(=O)OCCOCCOCCOC(=O)C(=C)C` [triethylene glycol dimethacrylate], the “Water solubility (g/L at 20° C.)” value (20° C.) was 3.6 g/L.

`C=CC(=O)OCC(C)OCC(C)OCC(C)OC(=O)C=C` (centres unmarked) [tripropylene glycol diacrylate]: the “Water solubility (g/L at 20° C.)” value (20° C.) is 4.0 g/L.

Turning to `C=CN1CCCC1=O` [N-Vinyl-pyrrolidone (NVP), N-Vinyl-pyrrolidone], the Water solubility (20° C.) is 100 g/L at 68° F. (20° C.).

With `C=CC(=O)OCCO` [hydroxyethyl acrylate], for the setting “25° C.”, the Water solubility was 100 g/L.

For the compound Polyethylene glycol (200) diacrylate, the Water solubility result (stated in words) is recorded as “Water soluble”.

Consider Poly(ethylene glycol) diacrylate, for which the Water solubility (temperature not given) is recorded as 21 g/L.

For `C=CC(=O)OCCOCCOCC` [2-(2-ethoxyethoxy)ethyl acrylate(EOEOA), 2-(2-ethoxyethoxy)ethyl acrylate], the “Amount that dissolves in water” value is reported as 13.4 g/L.

On to `C=C(C)C(=O)OCCO` [hydroxyethyl methacrylate], for which the “Amount that dissolves in water” value is recorded as 11.8 g/L.

`C=CC(=O)OCCOCCOCCOC(=O)C=C` [Triethylene glycol diacrylate (TEGDA), Triethylene glycol diacrylate]: the Water solubility (temperature not given) was 18 g/L.

As for `C=CC(=O)OCC1(CC)COCOC1` [cyclic trimethylolpropane formal acrylate], the “Water solubility (g/L at 20° C.)” value (20° C.) is recorded as 9.3 g/L.

As for `C=CC(=O)OCCOC(=O)NCCCC` [2-[[(butylamino)carbonyl]oxy]ethyl acrylate], the “Water solubility (g/L at 20° C.)” value (20° C.) is recorded as 5.0 g/L.

Turning to `C=CN1CCCCCC1=O` [N-Vinyl-caprolactam (NVC), N-Vinyl-caprolactam], for the setting “temperature not given”, the Water solubility is recorded as 40 g/L.

As to `C=CC(=O)OCCCO` [hydroxypropyl acrylate], the Water solubility (25° C.) was 100 g/L.

Turning to `C=Cn1ccnc1` [N-Vinyl-imidazole (VIM), N-Vinyl-imidazole], the Water solubility entry (stated in words) is reported as “Fully miscible”.

`C=C(C)C(=O)OCCOCCOCCOCCOC(=O)C(=C)C` [Tetraethylene glycol dimethacrylate]: the Water solubility (temperature not given) is listed as 12.6 g/L.
